Assay results: US10744188B2, “High osteocalcin microcrystalline hydroxyapatite for calcium supplement” (Waitaki Biosciences, priority 2013, dated 2020)
Entries after “also recorded” stand apart in the source; their conditions may differ. Structures can show the parent of a compound that is named as a salt.

Key:
[1] = 90 day study of bone calcium level and markers of bone mineralization and turnover; type: in vivo; conditions: 90 day experimental duration
[2] = blood ionized calcium concentration after ingestion of calcium supplement (clinical tests, FIG. 1)
Description: For some time microcrystalline hydroxyapatite (MCHA) manufactured from animal bones has been used as a slightly unconventional calcium supplement. Considering that bone mineral is largely calcium phosphate in the form of hydroxyapatite, it seems logical to use MCHA as a source of bone calcium. However, there can be some difficulty in purifying MCHA from native bones because there is considerable excess protein and lipid that must be removed to provide a stable as well as readily digestible product. As might be imagined there is considerable variation in the process parameters for making an MCHA product. In a study intended to compare MCHA to conventional calcium supplements, the inventors analyzed MCHA produced using varied protocols. They were surprised to discover that depending on how the MCHA is manufactured, its rate of bioabsorption changes quite dramatically. After considerable experimentation, the inventors developed the current product which was then compared to calcium carbonate and calcium citrate in both an absorption (measured by blood calcium concentration) and a bone mineralization/density study.
However, it must be kept in mind that the blood calcium concentration is maintained by withdrawing calcium from the bones if the dietary supply is insufficient.
In FIG. 1 the blood levels of ionized calcium of two different MHCA preparations (see below for preparation details) are compared to blood calcium levels provided by other calcium supplements.

| Compound | bone calcium level and other markers of bone mineralization and turnover, compared with calcium-free placebo [1] | bone calcium level and other markers of bone mineralization and turnover, supplements compared with each other [1] | duration of spiking of blood calcium concentration ([2]; after ingestion) | blood ionized calcium level after ingestion ([2]; compared with calcium-free placebo/control) | blood ionized calcium level after ingestion ([2]; human, in vivo) | duration of spiking of blood calcium concentration ([2]; human, in vivo) | blood ionized calcium level after ingestion ([2]; in vivo) |
| --- | --- | --- | --- | --- | --- | --- | --- |
| O=C([O-])[O-].[Ca+2] [calcium carbonate] | statistically significantly different from the calcium-free placebo | not statistically significantly different from each other | ca. 8 hour | spike above the normal 1 mM concentration; also recorded: rapid increase in ionized blood calcium | – | – | – |
| O=C(O)CC(O)(CC(=O)O)C(=O)O [calcium citrate] | statistically significantly different from the calcium-free placebo | not statistically significantly different from each other | – | – | spike above the normal 1 mM concentration | ca. 8 hour | rapid increase in ionized blood calcium |
| microcrystalline hydroxyapatite [MCHA] | – | – | – | – | – | – | not statistically significantly different from the calcium-free placebo |
